In PubChem BioAssay AID1963846 (Molecular Pharmacology Branch, DTP, NCI, 2024):

Test system: 454973-116-R2-J3-PDC complex spheroid viability
Experiment: Anticancer human tumor 454973-116-R2-J3-PDC patient-derived pancreatic carcinoma cell line growth inhibition [POLQ]
Conditions: for IC50: curve of first compound; for viability, T/C: stronger effect = lower value
Outline: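 Complex spheroid viability model combining PDC tumour cells with endothelial (HUVEC) and MSC stromal cells. Novobiocin, ART-558 or RP6685 were tested singly and in combination with standard and investigational anticancer drugs. Each was titrated in half-log steps from near clinical Cmax, or from 10 microM where Cmax was unknown.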

[1] = second compound 0.0316 µM, first compound 0.0316 µM
[2] = second compound 0.0316 µM, first compound 0.1 µM
[3] = second compound 0.0316 µM, first compound 0.316 µM
[4] = second compound 0.0316 µM, first compound 1 µM
[5] = second compound 0.0316 µM, first compound 3.16 µM
[6] = second compound 0.0316 µM, first compound 10 µM
[7] = second compound 0.1 µM, first compound 0.0316 µM
[8] = second compound 0.1 µM, first compound 0.1 µM
[9] = second compound 0.1 µM, first compound 0.316 µM
[10] = second compound 0.1 µM, first compound 1 µM
[11] = second compound 0.1 µM, first compound 3.16 µM
[12] = second compound 0.1 µM, first compound 10 µM
[13] = second compound 0.316 µM, first compound 0.0316 µM
[14] = second compound 0.316 µM, first compound 0.1 µM
[15] = second compound 0.316 µM, first compound 0.316 µM
[16] = second compound 0.316 µM, first compound 1 µM
[17] = second compound 0.316 µM, first compound 3.16 µM
[18] = second compound 0.316 µM, first compound 10 µM
[19] = second compound 1 µM, first compound 0.0316 µM
[20] = second compound 1 µM, first compound 0.1 µM
[21] = second compound 1 µM, first compound 0.316 µM
[22] = second compound 1 µM, first compound 1 µM
[23] = second compound 1 µM, first compound 3.16 µM
[24] = second compound 1 µM, first compound 10 µM
[25] = second compound 3.16 µM, first compound 0.0316 µM
[26] = second compound 3.16 µM, first compound 0.1 µM
[27] = second compound 3.16 µM, first compound 0.316 µM
[28] = second compound 3.16 µM, first compound 1 µM
[29] = second compound 3.16 µM, first compound 3.16 µM
[30] = second compound 3.16 µM, first compound 10 µM
[31] = second compound 10 µM, first compound 0.0316 µM
[32] = second compound 10 µM, first compound 0.1 µM
[33] = second compound 10 µM, first compound 0.316 µM
[34] = second compound 10 µM, first compound 1 µM
[35] = second compound 10 µM, first compound 3.16 µM
[36] = second compound 10 µM, first compound 10 µM
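Note: spheroids exposed to drugs for seven days before measurement.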
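Throughout, for viability, T/C: percent viability relative to DMSO vehicle control wells taken as 100%.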

For `CC(C)n1c(=O)n(C)c2cnc3cc(F)c(-c4ccc(OCCCN5CCCCC5)nc4)cc3c21` + Cc1cccc(N(C)C(=O)C2C(O)CCN2c2nc(C)cc(C(F)(F)F)c2C#N)c1, the IC50 (second compound 0.0316 µM) was over 10 µM, the IC50 (second compound 0.1 µM) was over 10 µM and the IC50 (second compound 0.316 µM) was over 10 µM. The IC50 (second compound 1 µM) was over 10 µM, the IC50 (second compound 3.16 µM) was over 10 µM and the IC50 (second compound 10 µM) was over 10 µM. For the same molecule, the viability, T/C [1] was 97.4%, the viability, T/C [2] was 96.4% and the viability, T/C [3] was 103%. For the same molecule, the viability, T/C [4] was 99.7%, the viability, T/C [5] was 105% and the viability, T/C [6] was 77.2%. The viability, T/C [7] was 97.3%, the viability, T/C [8] was 105% and the viability, T/C [9] was 101%. The viability, T/C [10] was 113%, the viability, T/C [11] was 107% and the viability, T/C [12] was 85%. For the same molecule, the viability, T/C [13] was 105%, the viability, T/C [14] was 110% and the viability, T/C [15] was 114%. For the same molecule, the viability, T/C [16] was 104%, the viability, T/C [17] was 97.1% and the viability, T/C [18] was 86.8%. For the same molecule, the viability, T/C [19] was 103%, the viability, T/C [20] was 105% and the viability, T/C [21] was 110%. It also gave a viability, T/C [22] of 116%, a viability, T/C [23] of 104% and a viability, T/C [24] of 87.3%. For the same molecule, the viability, T/C [25] was 109%, the viability, T/C [26] was 106% and the viability, T/C [27] was 108%. The viability, T/C [28] was 99.3%, the viability, T/C [29] was 101% and the viability, T/C [30] was 86%. For the same molecule, the viability, T/C [31] was 114%, the viability, T/C [32] was 110% and the viability, T/C [33] was 96.6%. For the same molecule, the viability, T/C [34] was 98.6%, the viability, T/C [35] was 97.3% and the viability, T/C [36] was 79%.
With `O=C(c1cc(Cc2n[nH]c(=O)c3ccccc23)ccc1F)N1CCN(C(=O)C2CC2)CC1` + Nc1ccc(C#CCN(C(=O)Cc2ncc(C(F)(F)F)cc2C(F)(F)F)c2ccc(F)cc2)nn1 the IC50 (second compound 0.0316 µM) was over 10 µM, the IC50 (second compound 0.1 µM) was over 10 µM and the IC50 (second compound 0.316 µM) was 9.69 µM. The IC50 (second compound 1 µM) was over 10 µM, the IC50 (second compound 3.16 µM) was over 10 µM and the IC50 (second compound 10 µM) was over 10 µM. It also gave a viability, T/C [1] of 101%, a viability, T/C [2] of 101% and a viability, T/C [3] of 90.8%. For the same molecule, the viability, T/C [4] was 91%, the viability, T/C [5] was 95.1% and the viability, T/C [6] was 58.9%. It also gave a viability, T/C [7] of 101%, a viability, T/C [8] of 101% and a viability, T/C [9] of 102%. For the same molecule, the viability, T/C [10] was 102%, the viability, T/C [11] was 83.5% and the viability, T/C [12] was 62.2%. For the same molecule, the viability, T/C [13] was 102%, the viability, T/C [14] was 105% and the viability, T/C [15] was 103%. It also gave a viability, T/C [16] of 98.2%, a viability, T/C [17] of 90.5% and a viability, T/C [18] of 48.2%. The viability, T/C [19] was 104%, the viability, T/C [20] was 105% and the viability, T/C [21] was 114%. The viability, T/C [22] was 102%, the viability, T/C [23] was 97.4% and the viability, T/C [24] was 54.6%. The viability, T/C [25] was 111%, the viability, T/C [26] was 112% and the viability, T/C [27] was 102%. The viability, T/C [28] was 99.9%, the viability, T/C [29] was 101% and the viability, T/C [30] was 59.7%. It also gave a viability, T/C [31] of 117%, a viability, T/C [32] of 113% and a viability, T/C [33] of 113%. The viability, T/C [34] was 112%, the viability, T/C [35] was 101% and the viability, T/C [36] was 57.2%.
Molecule `CC[C@@]1(O)C(=O)OCc2c1cc1n(c2=O)Cc2cc3c(CN(C)C)c(O)ccc3nc2-1` + Nc1ccc(C#CCN(C(=O)Cc2ncc(C(F)(F)F)cc2C(F)(F)F)c2ccc(F)cc2)nn1 has an IC50 (second compound 0.0316 µM) of 0.0157 µM, an IC50 (second compound 0.1 µM) of 0.0158 µM and an IC50 (second compound 0.316 µM) of 0.015 µM. For the same molecule, the IC50 (second compound 1 µM) was 0.0156 µM, the IC50 (second compound 3.16 µM) was 0.0161 µM and the IC50 (second compound 10 µM) was 0.0172 µM. The viability, T/C (second compound 0.0316 µM, first compound 0.000316 µM) was 105%, the viability, T/C (second compound 0.0316 µM, first compound 0.001 µM) was 106% and the viability, T/C (second compound 0.0316 µM, first compound 0.00316 µM) was 98.9%. It also gave a viability, T/C (second compound 0.0316 µM, first compound 0.01 µM) of 73.7%, a viability, T/C [1] of 13.2% and a viability, T/C [2] of 10.1%. For the same molecule, the viability, T/C (second compound 0.1 µM, first compound 0.000316 µM) was 107%, the viability, T/C (second compound 0.1 µM, first compound 0.001 µM) was 104% and the viability, T/C (second compound 0.1 µM, first compound 0.00316 µM) was 97.3%. It also gave a viability, T/C (second compound 0.1 µM, first compound 0.01 µM) of 73.2%, a viability, T/C [7] of 14.2% and a viability, T/C [8] of 10.4%. For the same molecule, the viability, T/C (second compound 0.316 µM, first compound 0.000316 µM) was 106%, the viability, T/C (second compound 0.316 µM, first compound 0.001 µM) was 102% and the viability, T/C (second compound 0.316 µM, first compound 0.00316 µM) was 107%. For the same molecule, the viability, T/C (second compound 0.316 µM, first compound 0.01 µM) was 71.2%, the viability, T/C [13] was 10.7% and the viability, T/C [14] was 12.3%. For the same molecule, the viability, T/C (second compound 1 µM, first compound 0.000316 µM) was 111%, the viability, T/C (second compound 1 µM, first compound 0.001 µM) was 110% and the viability, T/C (second compound 1 µM, first compound 0.00316 µM) was 94.5%. It also gave a viability, T/C (second compound 1 µM, first compound 0.01 µM) of 73.2%, a viability, T/C [19] of 13.2% and a viability, T/C [20] of 12.3%. The viability, T/C (second compound 3.16 µM, first compound 0.000316 µM) was 111%, the viability, T/C (second compound 3.16 µM, first compound 0.001 µM) was 113% and the viability, T/C (second compound 3.16 µM, first compound 0.00316 µM) was 98.7%. For the same molecule, the viability, T/C (second compound 3.16 µM, first compound 0.01 µM) was 76.5%, the viability, T/C [25] was 11.9% and the viability, T/C [26] was 10.3%. It also gave a viability, T/C (second compound 10 µM, first compound 0.000316 µM) of 122%, a viability, T/C (second compound 10 µM, first compound 0.001 µM) of 110% and a viability, T/C (second compound 10 µM, first compound 0.00316 µM) of 104%. It also gave a viability, T/C (second compound 10 µM, first compound 0.01 µM) of 86.1%, a viability, T/C [31] of 8.55% and a viability, T/C [32] of 9.22%.
